The results in this text go back to article PMC6010069, “The RFK catalytic cycle of the pathogen Streptococcus pneumoniae shows species-specific features in prokaryotic FMN synthesis” (Journal of Enzyme Inhibition and Medicinal Chemistry, 2018).

Like-named read-outs stand apart in the source and are kept apart here.

For series [1], the target named is T1, SpnFADS (Streptococcus pneumoniae, UniProt A0A0H2UPY5).
T1 construct: gene SP_1110; full-length bifunctional enzyme from pET-15b in E. coli BL21 Star (DE3), His6-tag removed; riboflavin kinase activity of the C-terminal module; functional form monomer
T1 sequence (A0A0H2UPY5 1-305): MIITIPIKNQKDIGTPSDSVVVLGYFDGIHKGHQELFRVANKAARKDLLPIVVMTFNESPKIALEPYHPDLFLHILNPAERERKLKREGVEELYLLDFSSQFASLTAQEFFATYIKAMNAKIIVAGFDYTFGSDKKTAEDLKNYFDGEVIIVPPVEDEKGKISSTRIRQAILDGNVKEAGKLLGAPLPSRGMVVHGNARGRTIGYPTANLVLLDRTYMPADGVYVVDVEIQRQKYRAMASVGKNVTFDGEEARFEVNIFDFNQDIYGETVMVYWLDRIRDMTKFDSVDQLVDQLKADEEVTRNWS
The series can be described thus: RFK activity, HPLC of flavins, global Lineweaver-Burk fit. The format is biochemical. The text has this:
(§1) RFK activity, HPLC of flavins, global Lineweaver-Burk fit on SpnFADS

Series [2] addresses T1, SpnFADS. In words: stopped-flow flavin fluorescence, Kd from koff and kon. Format: binding. An excerpt: stopped-flow flavin fluorescence, Kd from koff and kon on SpnFADS
For series [3], the target named is T1, SpnFADS. In words: biochemical. Further details: Isothermal titration calorimetry, ligand titrated into free or ligand-pre-bound SpnFADS, 20 °C, PIPES pH 7.0. Here is the method: We performed isothermal titration calorimetry (ITC) assays to elucidate both the ligand binding order and the thermodynamic inhibition produced by the binding of the FLV and ANP ligands. Titrations were performed on an AutoITC200 (MicroCal, Malvern, UK) thermostated at 20 °C, as previously described. Approximately 25 µM SpnFADS contained in a 200 µL-cell was titrated with solutions of 180 µM RF, 250 µM FMN, or 350 µM ATP or ADP. Additionally, titrations with ANP ligands into mixtures that contain the protein pre-bound to FLV ligands were performed, as well as titrations with FLV ligands into pre-bound SpnFADS:ANP complexes. The titrations were conducted through 19 stepwise injections of 2 µL of the titrating ligand to the calorimetric cell, as previously described[21]^,[26]. Both the ligands and the protein were dissolved in 20 mM PIPES, pH 7.0, either in presence of 0.8 mM MgCl2 or in absence of this cation, and degassed before the titration. The enthalpy change (ΔH), the association constant (Ka), and the binding stoichiometry (N) were obtained through non-linear least squares regression of the data using a homemade fitting routine corresponding to a model for one or two independent binding sites, implemented in Origin 7.0 (OriginLab, Northampton, MA, USA), as previously described[21]^,[26]. The Gibbs free energy (ΔG), the entropic contribution (−TΔS), and the dissociation constant (Kd) were obtained using well-known thermodynamic equations. Cooperativity constants (α) between ANP and FLV ligands were obtained as previously described[23]^,[27]^,[28]. Particular titrations with ANP ligands into mixtures of the protein and 100 µM FLV were fit to a homemade fitting routine corresponding to a model that considers the influence of the FLV ligand in the protein binding affinity for the ANP ligand[27]^,[28]. Experiments were performed in triplicate. The errors considered in the measured parameters (±15% in Kd and Ka values, ±0.3 kcal mol^−1 in ΔG, ΔH, and −TΔS and ±20% in α) were assumed to be larger than the standard deviation between replicates and the numerical error after fitting analysis.

Substrate in series [4]: Cc1cc2nc3c(=O)[nH]c(=O)nc-3n(C[C@H](O)[C@H](O)[C@H](O)CO)c2cc1C
In words: RFK activity, HPLC of flavins, global Lineweaver-Burk fit. The following applies: co-substrate ATP, 20 mM PIPES pH 7.0, 0.8 mM MgCl2, 25 °C. The format is biochemical, Streptococcus pneumoniae.
Excerpt: as §1

Substrate in series [5]: Nc1ncnc2c1ncn2[C@@H]1O[C@H](COP(=O)(O)OP(=O)(O)OP(=O)(O)O)[C@@H](O)[C@H]1O
The series is described as above. The format is biochemical, Streptococcus pneumoniae. Particulars: co-substrate RF, 20 mM PIPES pH 7.0, 0.8 mM MgCl2, 25 °C.
Excerpt: as §1

Where [6] appears, read: enzyme pre-bound to ADP, 0.8 mM MgCl2.
Setting [7] is: enzyme pre-bound to ADP, no MgCl2, read-out: Kd (μM), 0.0 mM MgCl2.

One may read the Ki as a measure of affinity in units of concentration, obtained from inhibition or displacement. With `Nc1ncnc2c1ncn2[C@@H]1O[C@H](COP(=O)(O)OP(=O)(O)O)[C@@H](O)[C@H]1O` [ADP, adenosine 5′-diphosphate], the Ki on SpnFADS [1] (read-out: Ki^ADP) was determined as 130000 ± 16000 nM.

A word on the Kd: it is the free concentration of one partner at which half of the binding sites on the other are occupied at equilibrium, for simple one-to-one binding. For `Cc1cc2nc3c(=O)[nH]c(=O)nc-3n(C[C@H](O)[C@H](O)[C@H](O)COP(=O)(O)O)c2cc1C` [FMN, flavin mononucleotide], at SpnFADS [1] (read-out: Ki^FMN), the Ki came out at 1300 ± 400 nM. In addition, the Kd on SpnFADS [2] was determined as 760 ± 240 nM; on SpnFADS [3] (setting [6]) it was 2.3 µM; on SpnFADS [3] (setting [7]), 7.9 µM; at SpnFADS [3] (enzyme pre-bound to ATP, 0.8 mM MgCl2), 1.6 µM.

`Cc1cc2nc3c(=O)[nH]c(=O)nc-3n(C[C@H](O)[C@H](O)[C@H](O)CO)c2cc1C` [RF, riboflavin]: the Kd on SpnFADS [2] is 570 ± 140 nM; on SpnFADS [3] (setting [6]) it was 1.6 µM; on SpnFADS [3] (setting [7]), 0.3 µM; at SpnFADS [3] (enzyme pre-bound to ATP, no MgCl2, read-out: Kd (μM), 0.0 mM MgCl2) it was 2.5 µM.

B1: SpnFADS (Streptococcus pneumoniae TIGR4) (protein)
chain: MIITIPIKNQKDIGTPSDSVVVLGYFDGIHKGHQELFRVANKAARKDLLPIVVMTFNESPKIALEPYHPDLFLHILNPAERERKLKREGVEELYLLDFSSQFASLTAQEFFATYIKAMNAKIIVAGFDYTFGSDKKTAEDLKNYFDGEVIIVPPVEDEKGKISSTRIRQAILDGNVKEAGKLLGAPLPSRGMVVHGNARGRTIGYPTANLVLLDRTYMPADGVYVVDVEIQRQKYRAMASVGKNVTFDGEEARFEVNIFDFNQDIYGETVMVYWLDRIRDMTKFDSVDQLVDQLKADEEVTRNWS
notes: full-length bifunctional enzyme from pET-15b in E. coli BL21 Star (DE3), His6-tag removed; riboflavin kinase activity of the C-terminal module; functional form monomer
As usually defined, the Km is the substrate concentration at which the rate is half of its maximum. One may read the kcat as the number of substrate molecules converted per active site and unit of time at saturation. With B1, the Km in series [4] is 1.2 ± 0.3 µM; in series [5] it was 75 ± 7 µM. Further, the catalytic constant (kcat) in series [4] and in series [5] was 0.917 ± 0.033 s⁻¹ each time.
